According to patent publication US9499550B2 (BRISTOL-MYERS SQUIBB COMPANY, priority 2012, dated 2016):
Read-outs that look alike come from different tables or passages of the source.

Assays:
[1] = system: HCV genotype 1b (Con1) replicon in HUH-7 cells; assay: HCV replicon luciferase reporter assay, genotype 1b; format: cell-based; settings: Hepatitis C virus, Huh-7, 72 h, 3 days incubation
In short: (§1)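 Replicon inhibition for both genotypes was measured as Renilla luciferase signal (EnduRen, 7.5 μM final, 2 h) after 3-day, 37° C exposure of replicon-bearing HUH-7 cells in 4% FCS DMEM, 0.5% DMSO. The 1b construct carries S1179I; the 1a H77 construct carries P1496L and S2204I. Twenty-point, 3-fold dilutions were fitted four-parametrically for EC50, and CC50 was taken from multiplexed Cell Titer-Blue.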

[2] = system: HCV genotype 1a (H77 strain) replicon in HUH-7 cells; assay: HCV replicon luciferase reporter assay, genotype 1a; format: cell-based; settings: Hepatitis C virus, Huh-7, 72 h, 3 days incubation
In short: as §1

[3] = HCV genotype 1b replicon luciferase, read-out: LE_1b (EC50)
[4] = HCV genotype 1b replicon luciferase, read-out: LE_1b (EC50, range)
[5] = HCV genotype 1a replicon luciferase, read-out: LE_1a (EC50)
[6] = HCV genotype 1a replicon luciferase, read-out: LE_1a (EC50, range)
[7] = HCV genotype 1b replicon luciferase assay, range class, read-out: LE_1b (EC50, range)
[8] = HCV genotype 1a replicon luciferase assay, range class, read-out: LE_1a (EC50, range)
[9] = GETYPE1B, HCV genotype 1b replicon luciferase, read-out: LE_1b (EC50, range)
[10] = GETYPE1A, HCV genotype 1a replicon luciferase, read-out: LE_1a (EC50, range)

| Compound | EC50 [1, 4] [nM] | EC50 [2, 6] [nM] | other results |
| --- | --- | --- | --- |
| C[C@@H]1CC/C=C\[C@@H]2C[C@@]2(C(=O)NS(=O)(=O)C2(CF)CC2)NC(=O)[C@@H]2C[C@@H](Oc3nc4c(c5ccccc35)OCCC4)CN2C(=O)[C@@H](NC(=O)OC(C)(C)C)[C@H](C)C1 [Compound 6026, tert-butyl ((2R,6S,7R,9R,13aS,14aR,16aS,Z)-2-((3,4-dihydro-2H-pyrano[3,2-c]isoquinolin-6-yl)oxy)-14a-(((1-(fluoromethyl)cyclopropyl)sulfonyl)carbamoyl)-7,9-dimethyl-5,16-dioxo-1,2,3,5,6,7,8,9,10,11,13a,14,14a,15,16,16a-hexadecahydrocyclopropa[e]pyrrolo[1,2-a][1,4]diazacyclopentadecin-6-yl)carbamate] | < 5.46 | < 5.46 | EC50 [1, 3]: 0.7 nM; EC50 [2, 5]: 1.13 nM |
| COc1ccc2c(O[C@@H]3C[C@H]4C(=O)N[C@]5(C(=O)NS(=O)(=O)C6(C)CC6)C[C@H]5/C=C\CC[C@@H](C)C[C@@H](C)[C@H](NC(=O)OC(C)(C)C(F)(F)F)C(=O)N4C3)nc3c(c2c1)CCCO3 [Compound 6080, 1,1,1-trifluoro-2-methylpropan-2-yl((2R,6S,7R,9R,13aS,14aR,16aS,Z)-2-((9-methoxy-2,3-dihydro-1H-pyrano[2,3-c]isoquinolin-6-yl)oxy)-7,9-dimethyl-14a-(((1-methylcyclopropyl)sulfonyl)carbamoyl)-5,16-dioxo-1,2,3,5,6,7,8,9,10,11,13a,14,14a,15,16,16a-hexadecahydrocyclopropa[e]pyrrolo[1,2-a][1,4]diazacyclopentadecin-6-yl)carbamate] | 0.51 to 1 | 0.1 to 0.5 | EC50 [1, 3]: 0.79 nM; EC50 [2, 5]: 0.31 nM |
| [2H]C([2H])([2H])C(C)(OC(=O)N[C@@H]1C(=O)N2C[C@H](Oc3nccc4cc(OC(C)C)ccc34)C[C@H]2C(=O)N[C@]2(C(=O)NS(=O)(=O)C3(C)CC3)C[C@H]2/C=C\CC[C@@H](C)C[C@H]1C)C([2H])([2H])[2H] [Compound 5165] | < 5.46 | < 5.46 |  |
| COc1ccc2c(O[C@@H]3C[C@H]4C(=O)N[C@]5(C(=O)NS(=O)(=O)C6(F)CC6)C[C@H]5/C=C\CC[C@@H](C)C[C@@H](C)[C@H](NC(=O)OC(C)(C)C)C(=O)N4C3)nccc2c1 [Compound 9, tert-butyl ((2R,6S,7R,9R,13aS,14aR,16aS,Z)-14a-(((1-fluorocyclopropyl)sulfonyl)carbamoyl)-2-((6-methoxyisoquinolin-1-yl)oxy)-7,9-dimethyl-5,16-dioxo-1,2,3,5,6,7,8,9,10,11,13a,14,14a,15,16,16a-hexadecahydrocyclopropa[e]pyrrolo[1,2-a][1,4]diazacyclopentadecin-6-yl)carbamate] |  |  | EC50 [1, 7]: < 5.46 nM; EC50 [2, 8]: < 5.46 nM |
| CC[C@@H]1C[C@H](C)CC/C=C\[C@@H]2C[C@@]2(C(=O)NS(=O)(=O)C2(C)CC2)NC(=O)[C@@H]2C[C@@H](Oc3ncc(OC)c4ccc(F)cc34)CN2C(=O)[C@H]1NC(=O)N1CCN(C)CC1 [Compound 4341, (2R,6S,7R,9R,13aS,14aR,16aS,Z)-7-ethyl-2-((7-fluoro-4-methoxyisoquinolin-1-yl)oxy)-9-methyl-N-((1-methylcyclopropyl)sulfonyl)-6-(4-methylpiperazine-1-carboxamido)-5,16-dioxo-1,2,3,5,6,7,8,9,10,11,13a,14,14a,15,16,16a-hexadecahydrocyclopropa[e]pyrrolo[1,2-a][1,4]diazacyclopentadecine-14a-carboxamide] | 1.01 to 5 | 1.01 to 5 |  |
| COc1ccc2c(O[C@@H]3C[C@H]4C(=O)N[C@]5(C(=O)NS(=O)(=O)C6(C)CC6)C[C@H]5/C=C\CC[C@@H](C)C[C@@H](C)[C@H](NC(=O)OC(C)(C)C)C(=O)N4C3)nc(-c3ccc(OC(C)C)cc3)cc2c1 [Compound 4063, tert-butyl (2R,6S,7R,9R,13aS,14aR,16aS,Z)-2-(3-(4-isopropoxyphenyl)-6-methoxyisoquinolin-1-yloxy)-7,9-dimethyl-14a-(1-methylcyclopropylsulfonylcarbamoyl)-5,16-dioxo-1,2,3,5,6,7,8,9,10,11,13a,14,14a,15,16,16a-hexadecahydrocyclopropa[e]pyrrolo[1,2-a][1,4]diazacyclopentadecin-6-ylcarbamate] | < 5.46 | < 5.46 |  |
| CCOc1cnc(O[C@@H]2C[C@H]3C(=O)N[C@]4(C(=O)NS(=O)(=O)C5CC5)C[C@H]4/C=C\CC[C@@H](C)C[C@@H](C)[C@H](NC(=O)OC(C)(C)C(F)(F)F)C(=O)N3C2)c2cc(F)ccc12 [Compound 4062] |  |  | EC50 [1, 9]: < 5.46 nM; EC50 [2, 10]: < 5.46 nM |
| CC[C@@H]1C[C@H](C)CC/C=C\[C@@H]2C[C@@]2(C(=O)NS(=O)(=O)C2CC2)NC(=O)[C@@H]2C[C@@H](Oc3ncc(OC)c4ccccc34)CN2C(=O)[C@H]1NC(=O)OC(C)(C)C(C)(F)F [Compound 5439, 3,3-difluoro-2-methylbutan-2-yl((2R,6S,7R,9R,13aS,14aR,16aS,Z)-14a-((cyclopropylsulfonyl)carbamoyl)-7-ethyl-2-((4-methoxyisoquinolin-1-yl)oxy)-9-methyl-5,16-dioxo-1,2,3,5,6,7,8,9,10,11,13a,14,14a,15,16,16a-hexadecahydrocyclopropa[e]pyrrolo[1,2-a][1,4]diazacyclopentadecin-6-yl)carbamate] | 0.1 to 0.5 | 0.51 to 1 |  |
| COc1ccc2c(O[C@@H]3C[C@H]4C(=O)N[C@]5(C(=O)NS(=O)(=O)C6(CF)CC6)C[C@H]5/C=C\CC[C@@H](C)C[C@@H](C)[C@H](NC(=O)OC(C)(C)C(F)(F)F)C(=O)N4C3)nc(Cl)cc2c1 [Compound 1165, 1,1,1-trifluoro-2-methylpropan-2-yl((2R,6S,7R,9R,13aS,14aR,16aS,Z)-2-((3-chloro-6-methoxyisoquinolin-1-yl)oxy)-14a-(((1-(fluoromethyl)cyclopropyl)sulfonyl)carbamoyl)-7,9-dimethyl-5,16-dioxo-1,2,3,5,6,7,8,9,10,11,13a,14,14a,15,16,16a-hexadecahydrocyclopropa[e]pyrrolo[1,2-a][1,4]diazacyclopentadecin-6-yl)carbamate] |  |  | EC50 [1, 7]: < 5.46 nM; EC50 [2, 8]: < 5.46 nM |
| [2H]C([2H])([2H])C(OC(=O)N[C@@H]1C(=O)N2C[C@H](Oc3nc(-c4ccc(OC(C)C)nc4)cc4cc(OC)ccc34)C[C@H]2C(=O)N[C@]2(C(=O)NS(=O)(=O)C3CC3)C[C@H]2/C=C\CC[C@@H](C)C[C@H]1C)(C([2H])([2H])[2H])C(F)(F)F [Compound 5217, 1,1,1,3,3,3-hexadeutero-2-(trifluoromethyl)propan-2-yl((2R,6S,7R,9R,13aS,14aR,16aS,Z)-14a-((cyclopropylsulfonyl)carbamoyl)-2-((3-(6-isopropoxypyridin-3-yl)-6-methoxyisoquinolin-1-yl)oxy)-7,9-dimethyl-5,16-dioxo-1,2,3,5,6,7,8,9,10,11,13a,14,14a,15,16,16a-hexadecahydrocyclopropa[e]pyrrolo[1,2-a][1,4]diazacyclopentadecin-6-yl)carbamate] | < 5.46 | < 5.46 |  |
| CCN(C)c1cc2cc(OC)ccc2c(O[C@@H]2C[C@H]3C(=O)N[C@]4(C(=O)NS(=O)(=O)C5(CF)CC5)C[C@H]4/C=C\CC[C@@H](C)C[C@@H](C)[C@H](NC(=O)OC(C)(C)C)C(=O)N3C2)n1 [Compound 1135, tert-butyl ((2R,6S,7R,9R,13aS,14aR,16aS,Z)-2-((3-(ethyl(methyl)amino)-6-methoxyisoquinolin-1-yl)oxy)-14a-(((1-(fluoromethyl)cyclopropyl)sulfonyl)carbamoyl)-7,9-dimethyl-5,16-dioxo-1,2,3,5,6,7,8,9,10,11,13a,14,14a,15,16,16a-hexadecahydrocyclopropa[e]pyrrolo[1,2-a][1,4]diazacyclopentadecin-6-yl)carbamate] |  |  | EC50 [1, 7]: < 5.46 nM; EC50 [2, 8]: 4.82 to 103 nM |
| C[C@@H]1CC/C=C\[C@@H]2C[C@@]2(C(=O)NS(=O)(=O)C2(CF)CC2)NC(=O)[C@@H]2C[C@@H](Oc3nccc4c5c(ccc34)OCCO5)CN2C(=O)[C@@H](NC(=O)OC(C)(C)C(C)(F)F)[C@H](C)C1 [Compound 5342] |  |  | EC50 [1, 9]: < 5.46 nM; EC50 [2, 10]: < 5.46 nM |
| COc1ccc2c(O[C@@H]3C[C@H]4C(=O)N[C@]5(C(=O)NS(=O)(=O)C6(C)CC6)C[C@H]5/C=C\CC[C@@H](C)C[C@@H](C)[C@H](NC(=O)OC(C)(C)C(F)F)C(=O)N4C3)nc3c(c2c1)CCCO3 [Compound 6084, 1,1-difluoro-2-methylpropan-2-yl((2R,6S,7R,9R,13aS,14aR,16aS,Z)-2-((9-methoxy-2,3-dihydro-1H-pyrano[2,3-c]isoquinolin-6-yl)oxy)-7,9-dimethyl-14a-(((1-methylcyclopropyl)sulfonyl)carbamoyl)-5,16-dioxo-1,2,3,5,6,7,8,9,10,11,13a,14,14a,15,16,16a-hexadecahydrocyclopropa[e]pyrrolo[1,2-a][1,4]diazacyclopentadecin-6-yl)carbamate] | 0.51 to 1 | 0.1 to 0.5 |  |
